Test results taken from ChEMBL document CHEMBL3132769, “Fragment growing to retain or alter the selectivity of anchored kinase hinge-binding fragments” (Medchemcomm, 2014).

Tests used:
[1] = test system: Tyrosine-protein kinase ABL1 (Homo sapiens), P00519 [H396P]; assay: Inhibition of human truncated ABL H396P mutant expressed in baculovirus assessed as substrate phosphorylation using fluorescence-labelled peptides as substrate at 9 uM after 90 mins by microfluidic peptide phosphorylation assay
[2] = test system: T1, Receptor-type tyrosine-protein kinase FLT3 (Homo sapiens), P36888 [D835Y]; assay: Inhibition of human FLT3 D835Y mutant catalytic domain expressed in baculovirus assessed as substrate phosphorylation using fluorescence-labelled peptides as substrate at 0.06 uM after 90 mins by microfluidic peptide phosphorylation assay
T1 sequence (whole entry): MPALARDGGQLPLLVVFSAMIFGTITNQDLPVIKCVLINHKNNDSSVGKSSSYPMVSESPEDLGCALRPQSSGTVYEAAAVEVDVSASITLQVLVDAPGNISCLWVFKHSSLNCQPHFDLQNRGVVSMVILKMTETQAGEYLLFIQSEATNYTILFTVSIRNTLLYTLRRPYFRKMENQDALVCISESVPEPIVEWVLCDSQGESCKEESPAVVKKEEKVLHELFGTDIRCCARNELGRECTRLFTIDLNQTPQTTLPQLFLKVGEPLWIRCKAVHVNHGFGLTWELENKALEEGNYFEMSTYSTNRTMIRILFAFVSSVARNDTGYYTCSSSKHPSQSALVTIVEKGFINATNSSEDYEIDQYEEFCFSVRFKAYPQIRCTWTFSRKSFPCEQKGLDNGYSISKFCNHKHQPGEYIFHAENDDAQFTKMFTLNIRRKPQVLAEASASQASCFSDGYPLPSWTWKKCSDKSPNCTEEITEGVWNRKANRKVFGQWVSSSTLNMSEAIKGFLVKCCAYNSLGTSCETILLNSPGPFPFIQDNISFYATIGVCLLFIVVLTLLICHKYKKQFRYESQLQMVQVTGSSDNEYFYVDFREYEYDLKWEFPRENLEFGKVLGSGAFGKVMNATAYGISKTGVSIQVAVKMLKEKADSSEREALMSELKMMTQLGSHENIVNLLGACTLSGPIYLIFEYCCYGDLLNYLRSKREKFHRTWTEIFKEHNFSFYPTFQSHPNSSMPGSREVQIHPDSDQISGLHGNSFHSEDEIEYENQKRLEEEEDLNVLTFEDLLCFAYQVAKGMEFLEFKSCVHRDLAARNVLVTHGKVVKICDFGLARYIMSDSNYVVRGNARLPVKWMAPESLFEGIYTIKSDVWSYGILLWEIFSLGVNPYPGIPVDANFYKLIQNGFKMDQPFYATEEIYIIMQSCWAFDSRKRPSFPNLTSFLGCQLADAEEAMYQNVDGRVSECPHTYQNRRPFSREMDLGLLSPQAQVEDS

[3] = molecular target: T2, Aurora kinase C (Homo sapiens) (UniProt Q9UQB9); assay: Inhibition of human full length AurC expressed in baculovirus assessed as substrate phosphorylation using fluorescence-labelled peptides as substrate at 0.06 uM after 90 mins by microfluidic peptide phosphorylation assay
T2 sequence (whole entry): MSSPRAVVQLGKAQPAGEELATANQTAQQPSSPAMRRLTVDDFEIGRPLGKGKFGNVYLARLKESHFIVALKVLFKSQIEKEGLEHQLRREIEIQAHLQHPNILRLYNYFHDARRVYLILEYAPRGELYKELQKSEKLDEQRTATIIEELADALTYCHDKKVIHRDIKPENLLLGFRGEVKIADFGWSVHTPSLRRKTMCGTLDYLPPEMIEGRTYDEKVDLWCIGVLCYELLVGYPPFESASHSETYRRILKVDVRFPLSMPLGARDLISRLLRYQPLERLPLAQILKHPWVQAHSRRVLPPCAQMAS

[4] = molecular target: T3, Serine/threonine-protein kinase 3 (Homo sapiens) (UniProt Q13188); assay: Inhibition of human full length MST2 expressed in baculovirus assessed as substrate phosphorylation using fluorescence-labelled peptides as substrate at 0.2 uM after 90 mins by microfluidic peptide phosphorylation assay
T3 sequence (whole entry): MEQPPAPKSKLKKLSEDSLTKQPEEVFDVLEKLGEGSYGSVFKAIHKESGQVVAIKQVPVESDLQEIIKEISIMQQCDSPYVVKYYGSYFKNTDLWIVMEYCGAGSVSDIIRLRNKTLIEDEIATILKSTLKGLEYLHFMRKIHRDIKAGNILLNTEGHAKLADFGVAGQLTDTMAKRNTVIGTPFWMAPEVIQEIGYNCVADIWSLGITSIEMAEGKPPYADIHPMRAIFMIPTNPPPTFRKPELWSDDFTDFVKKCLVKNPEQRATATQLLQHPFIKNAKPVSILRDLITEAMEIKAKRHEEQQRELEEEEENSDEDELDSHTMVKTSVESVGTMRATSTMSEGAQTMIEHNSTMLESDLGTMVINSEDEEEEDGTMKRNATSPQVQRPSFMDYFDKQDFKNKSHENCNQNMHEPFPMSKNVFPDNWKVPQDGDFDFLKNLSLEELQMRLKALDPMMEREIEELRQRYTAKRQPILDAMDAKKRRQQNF

[5] = molecular target: T4, Serine/threonine-protein kinase Sgk1 (Homo sapiens) (UniProt O00141); assay: Inhibition of human truncated SGK1 expressed in baculovirus assessed as substrate phosphorylation using fluorescence-labelled peptides as substrate at 8 uM after 90 mins by microfluidic peptide phosphorylation assay
T4 sequence (whole entry): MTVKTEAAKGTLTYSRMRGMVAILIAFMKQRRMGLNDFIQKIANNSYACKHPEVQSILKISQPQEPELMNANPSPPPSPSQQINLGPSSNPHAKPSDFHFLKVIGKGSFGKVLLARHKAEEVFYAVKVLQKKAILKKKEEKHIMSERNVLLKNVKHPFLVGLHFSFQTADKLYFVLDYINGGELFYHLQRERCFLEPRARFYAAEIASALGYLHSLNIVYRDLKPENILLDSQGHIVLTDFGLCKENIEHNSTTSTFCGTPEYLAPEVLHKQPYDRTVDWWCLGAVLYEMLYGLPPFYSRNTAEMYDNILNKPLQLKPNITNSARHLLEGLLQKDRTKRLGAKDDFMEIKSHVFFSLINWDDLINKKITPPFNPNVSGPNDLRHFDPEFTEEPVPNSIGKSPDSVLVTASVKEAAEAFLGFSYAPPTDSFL

[6] = molecular target: Tyrosine-protein kinase Fer (Homo sapiens) (UniProt P16591); assay: Inhibition of human FER catalytic domain expressed in baculovirus assessed as substrate phosphorylation using fluorescence-labelled peptides as substrate at 1000 uM after 90 mins by microfluidic peptide phosphorylation assay
Chain of Tyrosine-protein kinase Fer (Homo sapiens) (P16591 whole entry, looked up, the tested form may be a part): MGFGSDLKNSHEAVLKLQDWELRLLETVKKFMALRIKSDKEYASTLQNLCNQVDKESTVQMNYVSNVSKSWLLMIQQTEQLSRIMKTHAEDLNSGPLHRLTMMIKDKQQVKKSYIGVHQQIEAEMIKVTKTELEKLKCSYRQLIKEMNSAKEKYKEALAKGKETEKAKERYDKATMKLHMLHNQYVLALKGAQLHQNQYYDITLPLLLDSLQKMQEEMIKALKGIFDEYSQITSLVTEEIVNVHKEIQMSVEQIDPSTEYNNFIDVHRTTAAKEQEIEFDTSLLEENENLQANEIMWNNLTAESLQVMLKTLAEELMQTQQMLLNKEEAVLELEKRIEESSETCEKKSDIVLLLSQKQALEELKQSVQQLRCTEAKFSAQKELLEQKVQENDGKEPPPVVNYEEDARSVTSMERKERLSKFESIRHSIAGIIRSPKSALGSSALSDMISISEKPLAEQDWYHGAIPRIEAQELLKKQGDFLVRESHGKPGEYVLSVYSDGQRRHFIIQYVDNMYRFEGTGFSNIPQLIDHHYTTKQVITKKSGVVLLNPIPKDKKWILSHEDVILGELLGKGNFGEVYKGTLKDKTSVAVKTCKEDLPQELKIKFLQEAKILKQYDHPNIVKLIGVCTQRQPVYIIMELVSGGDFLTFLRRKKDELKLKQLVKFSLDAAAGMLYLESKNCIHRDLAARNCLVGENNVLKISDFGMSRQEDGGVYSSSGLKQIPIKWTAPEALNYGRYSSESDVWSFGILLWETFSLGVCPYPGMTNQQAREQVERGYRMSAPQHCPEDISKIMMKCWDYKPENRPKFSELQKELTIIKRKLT

SMILES: NCC1CN(c2ncnc3[nH]c4cnccc4c23)CCO1 (stereo unspecified)
- inhibition [1]: 16%

SMILES: NC1(Cc2ccc(Cl)cc2)CCN(c2ncnc3[nH]ccc23)CC1
- inhibition [2]: 0%
- inhibition [3]: 0%

SMILES: Clc1ccc(C2(c3ccc(-c4ncnc5[nH]cnc45)cc3)CCNCC2)cc1
- inhibition [4]: 2%

SMILES: NCC1CCN(c2ncnc3[nH]ccc23)CC1
- inhibition [5]: 59%

SMILES: c1cnc2[nH]ccc2c1
- inhibition [6]: 18%
